Assay results published in ChEMBL document CHEMBL5291721, “A preclinical secondary pharmacology resource illuminates target-adverse drug reaction associations of marketed drugs” (Nat Commun, 2023).

Key:
[1] = molecular target: Sodium-dependent dopamine transporter (Homo sapiens, UniProt Q01959)
[2] = molecular target: T1, 5-hydroxytryptamine receptor 1A (Homo sapiens, UniProt P08908)
T1 sequence (P08908 whole entry): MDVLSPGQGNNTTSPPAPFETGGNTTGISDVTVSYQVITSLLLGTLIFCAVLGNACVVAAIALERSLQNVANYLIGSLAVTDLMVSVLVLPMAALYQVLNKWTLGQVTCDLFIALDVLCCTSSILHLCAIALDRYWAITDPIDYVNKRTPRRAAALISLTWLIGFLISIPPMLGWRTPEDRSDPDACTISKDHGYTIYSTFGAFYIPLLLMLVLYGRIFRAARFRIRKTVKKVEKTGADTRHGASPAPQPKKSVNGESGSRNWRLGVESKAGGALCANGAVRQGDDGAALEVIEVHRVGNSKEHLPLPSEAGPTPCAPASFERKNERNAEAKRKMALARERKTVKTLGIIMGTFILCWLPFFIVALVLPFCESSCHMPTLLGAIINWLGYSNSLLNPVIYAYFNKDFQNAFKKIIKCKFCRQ

Prothrombin = Prothrombin (Homo sapiens, UniProt P00734); assay type: functional
Thromboxane A2 receptor [3] = molecular target: T2, Thromboxane A2 receptor (Homo sapiens, UniProt P21731); assay type: functional, cell-based
T2 sequence (P21731 whole entry): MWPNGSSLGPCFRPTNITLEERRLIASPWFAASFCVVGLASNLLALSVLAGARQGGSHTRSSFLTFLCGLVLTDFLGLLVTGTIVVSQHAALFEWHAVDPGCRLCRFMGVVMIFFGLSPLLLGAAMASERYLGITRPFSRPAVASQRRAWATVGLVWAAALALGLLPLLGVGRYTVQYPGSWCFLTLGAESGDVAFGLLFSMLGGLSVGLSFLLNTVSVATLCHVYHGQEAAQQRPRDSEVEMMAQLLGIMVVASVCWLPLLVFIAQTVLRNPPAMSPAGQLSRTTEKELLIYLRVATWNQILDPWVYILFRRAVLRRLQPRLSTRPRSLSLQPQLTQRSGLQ

[4] = molecular target: T3, Muscarinic acetylcholine receptor M2 (Homo sapiens, UniProt P08172)
T3 sequence (P08172 whole entry): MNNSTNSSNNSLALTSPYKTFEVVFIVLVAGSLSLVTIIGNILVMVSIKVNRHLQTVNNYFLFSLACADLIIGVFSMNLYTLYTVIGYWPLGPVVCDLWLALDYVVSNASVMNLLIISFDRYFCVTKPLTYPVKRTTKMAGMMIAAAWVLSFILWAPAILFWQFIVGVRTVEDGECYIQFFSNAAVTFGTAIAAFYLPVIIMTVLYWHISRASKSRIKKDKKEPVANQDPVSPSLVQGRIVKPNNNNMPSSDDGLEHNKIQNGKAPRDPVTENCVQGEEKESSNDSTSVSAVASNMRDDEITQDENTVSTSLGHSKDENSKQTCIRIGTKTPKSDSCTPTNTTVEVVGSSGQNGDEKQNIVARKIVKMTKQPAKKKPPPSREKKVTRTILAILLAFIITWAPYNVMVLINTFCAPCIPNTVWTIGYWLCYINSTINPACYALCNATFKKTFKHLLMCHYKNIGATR

[5] = molecular target: cGMP-inhibited 3',5'-cyclic phosphodiesterase 3A (Homo sapiens, UniProt Q14432); assay type: functional
cGMP-inhibited 3',5'-cyclic phosphodiesterase 3A, sequence (Q14432 whole entry): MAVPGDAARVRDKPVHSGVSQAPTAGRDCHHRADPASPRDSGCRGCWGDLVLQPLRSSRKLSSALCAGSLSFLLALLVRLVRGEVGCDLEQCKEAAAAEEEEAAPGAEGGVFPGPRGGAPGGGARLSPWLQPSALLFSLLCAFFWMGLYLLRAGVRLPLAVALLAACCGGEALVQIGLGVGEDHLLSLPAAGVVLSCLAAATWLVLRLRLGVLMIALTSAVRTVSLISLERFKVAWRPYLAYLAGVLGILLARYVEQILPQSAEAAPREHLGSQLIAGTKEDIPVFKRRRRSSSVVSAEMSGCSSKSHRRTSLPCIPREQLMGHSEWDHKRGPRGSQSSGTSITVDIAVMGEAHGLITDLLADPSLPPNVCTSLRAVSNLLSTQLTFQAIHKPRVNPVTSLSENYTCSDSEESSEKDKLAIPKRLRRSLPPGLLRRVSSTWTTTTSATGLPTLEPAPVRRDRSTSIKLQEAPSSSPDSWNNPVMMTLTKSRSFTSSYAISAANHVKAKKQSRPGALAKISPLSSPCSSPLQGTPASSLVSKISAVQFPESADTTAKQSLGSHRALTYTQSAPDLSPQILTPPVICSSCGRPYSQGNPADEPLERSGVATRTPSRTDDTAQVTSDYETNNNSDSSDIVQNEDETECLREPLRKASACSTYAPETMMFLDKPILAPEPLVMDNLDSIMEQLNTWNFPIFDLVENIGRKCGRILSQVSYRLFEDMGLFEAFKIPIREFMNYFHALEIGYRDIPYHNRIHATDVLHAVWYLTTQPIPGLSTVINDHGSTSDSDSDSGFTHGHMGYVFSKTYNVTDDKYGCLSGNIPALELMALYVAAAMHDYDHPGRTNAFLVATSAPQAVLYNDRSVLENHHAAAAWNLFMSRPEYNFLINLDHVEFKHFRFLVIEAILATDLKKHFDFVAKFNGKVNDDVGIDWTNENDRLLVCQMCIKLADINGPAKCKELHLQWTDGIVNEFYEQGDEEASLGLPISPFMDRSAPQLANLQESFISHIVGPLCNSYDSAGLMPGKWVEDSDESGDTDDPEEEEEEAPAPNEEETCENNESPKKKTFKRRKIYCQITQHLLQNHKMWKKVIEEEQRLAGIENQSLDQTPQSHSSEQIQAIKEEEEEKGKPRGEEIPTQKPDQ

[6] = molecular target: Voltage-gated inwardly rectifying potassium channel KCNH2 (Homo sapiens, UniProt Q12809); assay type: functional
Voltage-gated inwardly rectifying potassium channel KCNH2, sequence (Q12809 whole entry): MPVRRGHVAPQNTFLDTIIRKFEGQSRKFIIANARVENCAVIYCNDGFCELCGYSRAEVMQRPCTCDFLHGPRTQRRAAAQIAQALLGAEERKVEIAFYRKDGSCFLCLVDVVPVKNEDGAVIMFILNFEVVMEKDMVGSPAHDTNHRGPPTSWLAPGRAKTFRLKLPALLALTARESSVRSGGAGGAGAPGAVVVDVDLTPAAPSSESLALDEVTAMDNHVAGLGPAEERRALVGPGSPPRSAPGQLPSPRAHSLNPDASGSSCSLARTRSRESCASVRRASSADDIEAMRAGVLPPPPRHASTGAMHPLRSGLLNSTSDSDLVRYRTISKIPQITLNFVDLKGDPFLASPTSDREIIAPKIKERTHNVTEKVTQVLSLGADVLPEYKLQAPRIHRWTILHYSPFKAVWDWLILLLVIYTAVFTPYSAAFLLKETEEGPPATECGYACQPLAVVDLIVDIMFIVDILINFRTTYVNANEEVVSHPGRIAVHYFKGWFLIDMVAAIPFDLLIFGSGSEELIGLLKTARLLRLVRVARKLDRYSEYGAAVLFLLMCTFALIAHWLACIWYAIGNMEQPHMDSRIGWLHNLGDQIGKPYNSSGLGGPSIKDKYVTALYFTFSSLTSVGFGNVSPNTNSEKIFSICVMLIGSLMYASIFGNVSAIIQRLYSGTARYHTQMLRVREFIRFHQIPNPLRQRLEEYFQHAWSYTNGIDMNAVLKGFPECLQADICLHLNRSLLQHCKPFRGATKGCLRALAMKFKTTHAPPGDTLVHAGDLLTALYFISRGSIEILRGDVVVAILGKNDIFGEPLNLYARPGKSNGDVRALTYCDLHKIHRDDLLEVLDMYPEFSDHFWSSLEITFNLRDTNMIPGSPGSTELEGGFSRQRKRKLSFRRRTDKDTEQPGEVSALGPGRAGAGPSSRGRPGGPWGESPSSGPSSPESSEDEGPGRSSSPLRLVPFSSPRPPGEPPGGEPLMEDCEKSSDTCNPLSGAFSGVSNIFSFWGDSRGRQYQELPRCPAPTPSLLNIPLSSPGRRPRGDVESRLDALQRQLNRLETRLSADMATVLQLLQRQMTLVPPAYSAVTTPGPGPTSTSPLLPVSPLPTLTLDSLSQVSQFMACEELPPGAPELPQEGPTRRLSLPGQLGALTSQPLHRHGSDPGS

[7] = molecular target: T4, Amine oxidase [flavin-containing] A (Homo sapiens, UniProt P21397); assay type: functional
T4 sequence (P21397 whole entry): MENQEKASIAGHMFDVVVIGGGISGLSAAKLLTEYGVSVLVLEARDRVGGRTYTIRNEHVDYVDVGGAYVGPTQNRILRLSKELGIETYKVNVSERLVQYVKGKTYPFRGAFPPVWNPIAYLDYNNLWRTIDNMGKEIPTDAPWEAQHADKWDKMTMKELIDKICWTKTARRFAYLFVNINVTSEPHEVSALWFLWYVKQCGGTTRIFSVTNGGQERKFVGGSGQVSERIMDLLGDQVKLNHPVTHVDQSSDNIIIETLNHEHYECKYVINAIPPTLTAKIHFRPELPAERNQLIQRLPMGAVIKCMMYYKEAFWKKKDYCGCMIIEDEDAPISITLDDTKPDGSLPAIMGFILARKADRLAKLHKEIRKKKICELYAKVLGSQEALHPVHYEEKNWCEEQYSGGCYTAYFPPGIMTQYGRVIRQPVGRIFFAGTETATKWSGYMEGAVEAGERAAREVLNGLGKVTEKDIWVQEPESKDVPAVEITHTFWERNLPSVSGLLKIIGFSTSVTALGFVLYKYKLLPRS

Acetylcholinesterase = Acetylcholinesterase (Homo sapiens, UniProt P22303); assay type: functional
Acetylcholinesterase, sequence (P22303 whole entry): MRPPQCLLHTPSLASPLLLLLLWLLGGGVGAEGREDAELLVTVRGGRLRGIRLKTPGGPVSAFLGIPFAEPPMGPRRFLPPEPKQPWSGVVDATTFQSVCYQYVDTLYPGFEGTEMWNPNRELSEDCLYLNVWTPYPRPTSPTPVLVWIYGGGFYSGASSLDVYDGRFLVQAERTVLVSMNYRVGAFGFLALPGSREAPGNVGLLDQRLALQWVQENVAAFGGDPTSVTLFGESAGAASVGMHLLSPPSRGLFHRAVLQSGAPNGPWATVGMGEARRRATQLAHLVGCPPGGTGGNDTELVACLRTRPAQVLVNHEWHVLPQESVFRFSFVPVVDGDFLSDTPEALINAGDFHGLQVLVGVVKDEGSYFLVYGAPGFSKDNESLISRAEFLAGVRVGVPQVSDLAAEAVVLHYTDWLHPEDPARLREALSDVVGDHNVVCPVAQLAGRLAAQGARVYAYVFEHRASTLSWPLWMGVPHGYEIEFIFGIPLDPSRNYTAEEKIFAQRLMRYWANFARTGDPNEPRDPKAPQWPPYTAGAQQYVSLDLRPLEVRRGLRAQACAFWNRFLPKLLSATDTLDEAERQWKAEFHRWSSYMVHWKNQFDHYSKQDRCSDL

[8] = molecular target: 3',5'-cyclic-AMP phosphodiesterase 4A (Homo sapiens, UniProt P27815); assay type: functional
3',5'-cyclic-AMP phosphodiesterase 4A, sequence (P27815 whole entry): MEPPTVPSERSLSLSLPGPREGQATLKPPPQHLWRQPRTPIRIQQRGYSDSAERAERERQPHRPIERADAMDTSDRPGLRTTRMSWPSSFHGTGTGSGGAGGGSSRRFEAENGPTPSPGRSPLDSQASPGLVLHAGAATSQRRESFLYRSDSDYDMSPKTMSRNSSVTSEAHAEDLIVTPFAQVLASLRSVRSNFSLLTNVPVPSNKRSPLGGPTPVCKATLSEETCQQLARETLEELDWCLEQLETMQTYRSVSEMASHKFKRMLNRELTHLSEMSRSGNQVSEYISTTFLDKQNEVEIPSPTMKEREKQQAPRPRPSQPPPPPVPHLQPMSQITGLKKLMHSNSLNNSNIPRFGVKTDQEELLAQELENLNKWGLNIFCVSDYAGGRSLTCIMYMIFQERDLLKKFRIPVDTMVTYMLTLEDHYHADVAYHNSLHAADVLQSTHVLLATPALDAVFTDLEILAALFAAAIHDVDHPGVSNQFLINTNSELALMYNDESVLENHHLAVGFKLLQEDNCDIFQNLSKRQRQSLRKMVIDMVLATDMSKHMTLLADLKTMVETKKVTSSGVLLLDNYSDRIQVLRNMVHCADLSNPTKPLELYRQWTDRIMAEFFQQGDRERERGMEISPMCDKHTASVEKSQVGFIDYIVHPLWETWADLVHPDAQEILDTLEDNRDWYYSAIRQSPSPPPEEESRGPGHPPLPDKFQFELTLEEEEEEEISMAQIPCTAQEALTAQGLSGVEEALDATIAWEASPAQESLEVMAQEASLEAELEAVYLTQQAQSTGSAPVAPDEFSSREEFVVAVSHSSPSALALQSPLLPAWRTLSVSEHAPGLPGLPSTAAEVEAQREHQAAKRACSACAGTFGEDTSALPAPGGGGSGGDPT

[9] = molecular target: 5-hydroxytryptamine receptor 2B (Homo sapiens, UniProt P41595); assay type: functional, cell-based
5-hydroxytryptamine receptor 2B, sequence (P41595 whole entry): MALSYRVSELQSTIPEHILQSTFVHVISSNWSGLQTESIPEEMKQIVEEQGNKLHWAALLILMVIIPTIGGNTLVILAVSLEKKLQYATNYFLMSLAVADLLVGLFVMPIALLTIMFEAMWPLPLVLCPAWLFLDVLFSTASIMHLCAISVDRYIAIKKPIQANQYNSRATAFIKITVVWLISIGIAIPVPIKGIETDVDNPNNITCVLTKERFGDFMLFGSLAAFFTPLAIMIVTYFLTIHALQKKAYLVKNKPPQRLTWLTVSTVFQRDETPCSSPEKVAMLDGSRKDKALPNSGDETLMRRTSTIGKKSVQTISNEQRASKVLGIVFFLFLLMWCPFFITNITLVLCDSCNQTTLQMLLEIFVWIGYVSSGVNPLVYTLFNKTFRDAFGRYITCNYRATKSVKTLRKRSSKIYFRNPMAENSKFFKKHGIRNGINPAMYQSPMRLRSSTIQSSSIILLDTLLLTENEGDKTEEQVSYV

[10] = molecular target: T5, Alpha-2A adrenergic receptor (Homo sapiens, UniProt P08913)
T5 sequence (P08913 whole entry): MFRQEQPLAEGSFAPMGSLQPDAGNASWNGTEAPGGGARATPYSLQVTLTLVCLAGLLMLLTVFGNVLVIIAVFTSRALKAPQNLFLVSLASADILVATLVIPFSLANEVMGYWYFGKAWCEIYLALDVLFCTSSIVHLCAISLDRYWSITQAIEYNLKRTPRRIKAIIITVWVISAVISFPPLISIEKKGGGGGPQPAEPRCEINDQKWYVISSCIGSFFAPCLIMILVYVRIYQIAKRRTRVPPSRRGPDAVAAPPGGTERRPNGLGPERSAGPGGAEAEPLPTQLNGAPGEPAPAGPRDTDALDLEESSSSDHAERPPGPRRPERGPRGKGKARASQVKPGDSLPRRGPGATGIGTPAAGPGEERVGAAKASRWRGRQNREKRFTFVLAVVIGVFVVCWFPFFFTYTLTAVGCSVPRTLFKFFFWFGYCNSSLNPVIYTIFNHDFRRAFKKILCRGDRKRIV

Histamine H3 receptor = Histamine H3 receptor (Homo sapiens, UniProt Q9Y5N1)
Histamine H3 receptor, sequence (Q9Y5N1 whole entry): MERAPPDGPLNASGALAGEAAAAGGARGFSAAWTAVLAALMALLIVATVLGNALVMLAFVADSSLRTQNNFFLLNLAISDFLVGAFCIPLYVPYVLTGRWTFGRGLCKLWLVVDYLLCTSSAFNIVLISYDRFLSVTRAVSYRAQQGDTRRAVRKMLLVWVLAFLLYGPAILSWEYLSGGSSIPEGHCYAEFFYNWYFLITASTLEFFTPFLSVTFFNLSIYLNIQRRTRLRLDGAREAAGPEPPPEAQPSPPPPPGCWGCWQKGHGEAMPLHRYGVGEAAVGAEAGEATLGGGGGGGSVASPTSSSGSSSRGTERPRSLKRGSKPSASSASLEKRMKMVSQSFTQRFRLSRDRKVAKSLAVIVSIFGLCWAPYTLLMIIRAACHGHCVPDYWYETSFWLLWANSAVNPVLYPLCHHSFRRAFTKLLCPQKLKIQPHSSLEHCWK

Thromboxane A2 receptor [11] = molecular target: T2, Thromboxane A2 receptor; assay type: functional, cell-based; remark: listed apart in the source
Further: assay procedure not described here.

SMILES	AC50 [1]	AC50 [2]	AC50 (Prothrombin)	AC50 (Thromboxane A2 receptor [3])	AC50 [4]	AC50 [5]	AC50 [6]	AC50 [7]	AC50 (Acetylcholinesterase)	AC50 [8]	AC50 [9]	AC50 [10]	AC50 (Histamine H3 receptor)	AC50 (Thromboxane A2 receptor [11])
COc1cccc(C(=O)CCN[C@@H](C)[C@H](O)c2ccccc2)c1 [OXYFEDRINE]	2.97 µM	0.0096 µM	> 30 µM	> 30 µM	> 30 µM	> 30 µM	10 µM	> 30 µM	> 30 µM	> 30 µM	> 30 µM	5.96 µM	> 30 µM	> 30 µM
CC[N+](C)(CC)CCOC(=O)C(O)(c1ccccc1)C1CCCCC1 (stereo not drawn) [OXYPHENONIUM]	21.9 µM	> 30 µM	> 30 µM	> 30 µM	0.003 µM	> 30 µM	14 µM	> 30 µM	> 30 µM	> 30 µM	> 30 µM	> 30 µM	> 30 µM	> 30 µM
C[C@@H]1C[C@H]2[C@@H]3C[C@H](F)C4=CC(=O)C=C[C@]4(C)[C@H]3[C@@H](O)C[C@]2(C)[C@@]1(O)C(=O)CO [PARAMETHASONE]	> 30 µM	> 30 µM	> 30 µM	> 30 µM	> 30 µM	> 30 µM	> 30 µM	> 30 µM	> 30 µM	> 30 µM	> 30 µM	> 30 µM	> 30 µM	> 30 µM
N[C@@H](Cc1ccccc1)C(=O)O [PHENYLALANINE]	> 30 µM	> 30 µM	> 30 µM	> 30 µM	> 30 µM	> 30 µM	> 30 µM	> 30 µM	> 30 µM	> 30 µM	> 30 µM	> 30 µM	> 30 µM	> 30 µM
CCCn1cnc2c1c(=O)n(CCCCC(C)=O)c(=O)n2C [PROPENTOFYLLINE]	> 30 µM	> 30 µM	> 30 µM	> 30 µM	> 30 µM	> 30 µM	> 30 µM	> 30 µM	> 30 µM	8.96 µM	> 30 µM	> 30 µM	> 30 µM	> 30 µM
Clc1ccc(C(Cn2ccnc2)OCc2csc3c(Cl)cccc23)c(Cl)c1 (stereo not drawn) [SERTACONAZOLE]	1.88 µM	12.4 µM	> 30 µM	14.5 µM	6.26 µM	> 30 µM	1.7 µM	> 30 µM	> 30 µM	17.7 µM	> 30 µM	3.8 µM	23.3 µM	> 30 µM
CC(OCCN1CCCCCC1)(c1ccccc1)c1ccc(Cl)cc1 (stereo not drawn) [SETASTINE]	2.98 µM	9.59 µM	> 30 µM	8.8 µM	0.393 µM	> 30 µM	0.14 µM	> 30 µM	9.61 µM	> 30 µM	> 30 µM	7.86 µM	23.2 µM	> 30 µM
